Laboratory results published in patent publication US8829011B2 (Janssen Pharmaceutica NV, priority 2008, dated 2014).
Values belong to the compound of their own block, whether it stands above or below them.

Legend:
[1] = biological target: T1, human recombinant 5-HT2A receptor (Homo sapiens, UniProt P28223); assay: Affinity for 5-HT2A receptor binding sites (competitive radioligand binding, [3H]ketanserin); settings: membranes of NIH3T3 with h5-HT2A, * = tested as hydrochloride salt
T1 construct: expressed in transfected cells; host or cells: NIH3T3
T1 sequence (P28223 whole entry): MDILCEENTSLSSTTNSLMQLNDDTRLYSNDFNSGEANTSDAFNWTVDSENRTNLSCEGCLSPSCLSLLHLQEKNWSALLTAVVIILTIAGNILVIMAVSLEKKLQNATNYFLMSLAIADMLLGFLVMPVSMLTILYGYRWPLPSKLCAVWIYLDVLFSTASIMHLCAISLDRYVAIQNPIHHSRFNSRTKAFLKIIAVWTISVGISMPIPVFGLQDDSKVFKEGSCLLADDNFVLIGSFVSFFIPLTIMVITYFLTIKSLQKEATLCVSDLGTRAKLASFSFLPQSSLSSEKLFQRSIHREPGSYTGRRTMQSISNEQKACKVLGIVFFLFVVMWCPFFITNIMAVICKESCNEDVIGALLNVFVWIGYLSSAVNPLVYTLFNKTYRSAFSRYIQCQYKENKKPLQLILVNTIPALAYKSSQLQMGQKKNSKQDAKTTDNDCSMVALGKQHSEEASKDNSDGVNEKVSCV
Procedure: (§1) Stock drug solutions (10 mM) were prepared in DMSO (the final assay concentration of DMSO not exceeding 0.4%). Drug dilutions were prepared in assay buffer.
(§2) Sigmoidal inhibition curves were generated and fitted by nonlinear regression analysis (GraphPad Prism).
(§3) 2. Affinity for 5HT2 Receptor Binding Sites
(§4) Receptor binding was performed using the human recombinant 5-HT2A (GB: X57830), 5-HT2B (GB: Z36748) and 5-HT2C (GB: M81778) receptors. The affinity of the compounds for the 3 different human 5-HT2 receptor subtypes was evaluated by competitive radioligand binding assays using [^3H]ketanserin (h5-HT2A) or [^3H]mesulergine (h5-HT2B and h5-HT2C). The assays were performed on membranes prepared from NIH3T3 stably transfected with h5-HT2A or CHO stably transfected with h5-HT2B and h5-HT2C.

[2] = biological target: T2, human recombinant 5-HT2B receptor (Homo sapiens, UniProt P41595); assay: Affinity for 5-HT2B receptor binding sites (competitive radioligand binding, [3H]mesulergine); settings: membranes of CHO with h5-HT2B, * = tested as hydrochloride salt
T2 construct: expressed in transfected cells; host or cells: CHO
T2 sequence (P41595 whole entry): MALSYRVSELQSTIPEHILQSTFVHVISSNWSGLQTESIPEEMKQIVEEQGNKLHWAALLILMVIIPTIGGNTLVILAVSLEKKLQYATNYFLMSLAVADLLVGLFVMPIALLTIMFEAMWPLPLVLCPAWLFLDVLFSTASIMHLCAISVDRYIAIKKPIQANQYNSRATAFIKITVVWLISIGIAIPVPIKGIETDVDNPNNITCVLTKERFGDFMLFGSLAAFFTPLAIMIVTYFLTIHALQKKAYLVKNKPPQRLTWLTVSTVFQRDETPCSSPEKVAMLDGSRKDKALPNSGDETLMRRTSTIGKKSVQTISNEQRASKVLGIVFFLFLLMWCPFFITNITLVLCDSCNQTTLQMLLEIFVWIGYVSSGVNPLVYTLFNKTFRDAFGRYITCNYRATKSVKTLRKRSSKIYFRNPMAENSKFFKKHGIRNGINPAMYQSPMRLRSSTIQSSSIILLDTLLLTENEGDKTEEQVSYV
Procedure: as §1, §2, §3, §4

[3] = biological target: T3, human recombinant 5-HT2C receptor (Homo sapiens, UniProt P28335); assay: Affinity for 5-HT2C receptor binding sites (competitive radioligand binding, [3H]mesulergine); settings: membranes of CHO with h5-HT2C, * = tested as hydrochloride salt
T3 construct: expressed in transfected cells; host or cells: CHO
T3 sequence (P28335 33-458): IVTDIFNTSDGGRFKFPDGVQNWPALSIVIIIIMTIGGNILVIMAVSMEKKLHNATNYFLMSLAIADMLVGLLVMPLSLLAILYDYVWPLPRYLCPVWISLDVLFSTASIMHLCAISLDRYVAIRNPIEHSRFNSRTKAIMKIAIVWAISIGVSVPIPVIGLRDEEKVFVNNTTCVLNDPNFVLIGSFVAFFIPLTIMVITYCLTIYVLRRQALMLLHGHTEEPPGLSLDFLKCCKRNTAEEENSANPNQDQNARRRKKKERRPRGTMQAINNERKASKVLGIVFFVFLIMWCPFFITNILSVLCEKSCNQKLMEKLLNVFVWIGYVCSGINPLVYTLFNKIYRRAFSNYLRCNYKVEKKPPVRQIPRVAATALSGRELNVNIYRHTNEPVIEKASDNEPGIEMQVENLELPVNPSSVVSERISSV
Procedure: as §1, §2, §3, §4

[4] = biological target: T4, human recombinant 5-HT6 receptor (Homo sapiens, UniProt P50406); assay: Affinity for 5-HT6 receptor binding sites (competitive radioligand binding, [3H]LSD); settings: membranes of HEK-293 with h5-HT6, * = tested as hydrochloride salt
T4 construct: expressed in transfected cells; host or cells: HEK-293
T4 sequence (P50406 whole entry): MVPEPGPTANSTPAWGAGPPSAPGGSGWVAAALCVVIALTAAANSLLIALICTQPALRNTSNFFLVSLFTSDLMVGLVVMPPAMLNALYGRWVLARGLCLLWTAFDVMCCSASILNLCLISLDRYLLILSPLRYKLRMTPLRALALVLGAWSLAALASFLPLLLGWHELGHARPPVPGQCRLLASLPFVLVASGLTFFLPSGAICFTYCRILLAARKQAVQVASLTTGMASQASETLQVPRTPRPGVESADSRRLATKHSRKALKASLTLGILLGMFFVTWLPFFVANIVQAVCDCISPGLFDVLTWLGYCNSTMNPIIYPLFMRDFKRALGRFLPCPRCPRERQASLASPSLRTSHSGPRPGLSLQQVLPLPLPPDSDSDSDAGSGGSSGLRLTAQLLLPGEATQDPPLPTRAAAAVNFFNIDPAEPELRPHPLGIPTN
Procedure: as §1, §2
3. Affinity for 5-HT6 Receptor Binding Sites
Receptor binding was performed using the human recombinant 5-HT6 (GB: BC0794995) receptor. The affinity of the compounds for the human 5-HT6 receptor was evaluated by competitive radioligand binding assays using [^3H]LSD. The assays were performed on membranes prepared from HEK-293 stably transfected with h5-HT6. Non-specific binding was estimated in the presence of 1 μM clozapine.

Structure (SMILES): CC1CCCN1c1nc2c(c(-c3ccc(Cl)cc3)n1)CNCCC2 (stereo not drawn) [Example 53, 4-(4-Chloro-phenyl)-2-(2-methyl-pyrrolidin-1-yl)-6,7,8,9-tetrahydro-5H-1,3,6-triaza-benzocycloheptene]
Ki [1]: 2000 nM
Ki [2]: 1200 nM
Ki [3]: > 10000 nM

Structure (SMILES): Clc1ccc(-c2nc(NCc3ccccc3)nc3c2CNCCC3)cc1 [Example 55, Benzyl-[4-(4-chloro-phenyl)-6,7,8,9-tetrahydro-5H-1,3,6-triaza-benzocyclohepten-2-yl]-amine]
Ki [1]: 50 nM
Ki [2]: > 10000 nM
Ki [3]: 1100 nM

Structure (SMILES): Clc1ccc(-c2nc(N3CCOCC3)nc3c2CNCCC3)cc1 [Example 57, 4-(4-Chloro-phenyl)-2-morpholin-4-yl-6,7,8,9-tetrahydro-5H-1,3,6-triaza-benzocycloheptene]
Ki [1]: 500 nM
Ki [2]: > 10000 nM
Ki [3]: > 10000 nM
Ki [4]: 2290 nM

Structure (SMILES): Clc1ccc(-c2nc(N3CCOCC3)nc3c2CCNCC3)cc1 [Example 58, 4-(4-Chloro-phenyl)-2-morpholin-4-yl-6,7,8,9-tetrahydro-5H-pyrimido[4,5-d]azepine]
Ki [1]: 17 nM
Ki [2]: 30 nM
Ki [3]: 20 nM
Ki [4]: 102 nM

Structure (SMILES): Cc1ccc(-c2nc(N3CCS(=O)(=O)CC3)nc3c2CCNCC3)cc1 [Example 64, 2-(1,1-Dioxo-1λ^6-thiomorpholin-4-yl)-4-p-tolyl-6,7,8,9-tetrahydro-5H-pyrimido[4,5-d]azepine]
Ki [1]: 520 nM
Ki [2]: 620 nM
Ki [3]: 1260 nM
Ki [4]: 29 nM

Structure (SMILES): Cc1ccc(-c2nc(N3CCS(=O)(=O)CC3)nc3c2CCN(C)CC3)cc1 [Example 65, 2-(1,1-Dioxo-1λ^6-thiomorpholin-4-yl)-7-methyl-4-p-tolyl-6,7,8,9-tetrahydro-5H-pyrimido[4,5-d]azepine]
Ki [2]: 280 nM
Ki [3]: 960 nM
Ki [4]: 41 nM

Structure (SMILES): COc1ccc(-c2nc(N3CCCC3C)nc3c2CCNCC3)cc1Cl (stereo not drawn) [Example 66, 4-(3-chloro-4-methoxyphenyl)-6,7,8,9-tetrahydro-2-(2-methyl-1-pyrrolidinyl)-5H-pyrimido[4,5-d]azepine]
Ki [1]: 61 nM
Ki [2]: 8 nM
Ki [3]: 46 nM
Ki [4]: 47 nM

Structure (SMILES): FC1CCN(c2nc3c(c(-c4ccc(Cl)c(Cl)c4)n2)CCNCC3)CC1 [Example 67, 4-(3,4-dichlorophenyl)-2-(4-fluoro-1-piperidinyl)-6,7,8,9-tetrahydro-5H-pyrimido[4,5-d]azepine]
Ki [4]: 96 nM

Structure (SMILES): FC1CCN(c2nc3c(c(-c4ccc(Cl)cc4)n2)CCNCC3)CC1 [Example 68, 4-(4-chlorophenyl)-2-(4-fluoro-1-piperidinyl)-6,7,8,9-tetrahydro-5H-pyrimido[4,5-d]azepine]
Ki [1]: 19 nM
Ki [2]: 6 nM
Ki [3]: 5 nM
Ki [4]: 29 nM

Structure (SMILES): Cc1ccc(-c2nc(N3CCC(F)CC3)nc3c2CCNCC3)cc1 [Example 69, 2-(4-fluoro-1-piperidinyl)-6,7,8,9-tetrahydro-4-(4-methylphenyl)-5H-pyrimido[4,5-d]azepine]
Ki [1]: 35 nM
Ki [2]: 5 nM
Ki [3]: 5 nM
Ki [4]: 13 nM

Structure (SMILES): C[C@@H]1CCC[C@H](C)N1c1nc2c(c(-c3ccc(Cl)cc3)n1)CCNCC2 [Example 70, 4-(4-chlorophenyl)-2-[(2R,6S)-2,6-dimethyl-1-piperidinyl]-6,7,8,9-tetrahydro-5H-pyrimido[4,5-d]azepine]
Ki [1]: 54 nM
Ki [2]: 2 nM
Ki [3]: 12 nM
Ki [4]: 19 nM

Structure (SMILES): Cc1ccc(-c2nc(N3[C@H](C)CCC[C@@H]3C)nc3c2CCNCC3)cc1 [Example 71, 2-[(2R,6S)-2,6-dimethyl-1-piperidinyl]-6,7,8,9-tetrahydro-4-(4-methylphenyl)-5H-pyrimido[4,5-d]azepine]
Ki [1]: 36 nM
Ki [2]: 1 nM
Ki [3]: 9 nM
Ki [4]: 19 nM

Structure (SMILES): Cc1ccc(-c2nc(N3CCCC3C)nc3c2CCNCC3)cc1 (stereo not drawn) [Example 72, 6,7,8,9-tetrahydro-4-(4-methylphenyl)-2-(2-methyl-1-pyrrolidinyl)-5H-pyrimido[4,5-d]azepine]
Ki [1]: 28 nM
Ki [2]: 2 nM
Ki [3]: 4 nM
Ki [4]: 32 nM

Structure (SMILES): C[C@@H]1CCC[C@H](C)N1c1nc2c(c(-c3ccc(Cl)c(Cl)c3)n1)CCNCC2 [Example 73, 4-(3,4-dichlorophenyl)-2-[(2R,6S)-2,6-dimethyl-1-piperidinyl]-6,7,8,9-tetrahydro-5H-pyrimido[4,5-d]azepine]
Ki [1]: 170 nM
Ki [2]: 7 nM
Ki [3]: 38 nM
Ki [4]: 62 nM

Continued, values first:

Ki [1]: 4 nM
Ki [2]: 3 nM
Ki [3]: 1 nM
Ki [4]: 46 nM
Structure (SMILES): Clc1ccc(-c2nc(N3CCCCC3)nc3c2CCNCC3)cc1 [Example 74, 4-(4-chlorophenyl)-6,7,8,9-tetrahydro-2-(1-piperidinyl)-5H-pyrimido[4,5-d]azepine]

Ki [4]: 85.9 nM
Structure (SMILES): Cc1ccc(-c2nc(N3CCCCC3)nc3c2CCNCC3)cc1Cl [Example 75, 4-(3-chloro-4-methylphenyl)-6,7,8,9-tetrahydro-2-(1-piperidinyl)-5H-pyrimido[4,5-d]azepine]

Ki [1]: 38 nM
Ki [2]: 16 nM
Ki [3]: 15 nM
Ki [4]: 39 nM
Structure (SMILES): Cc1ccc(-c2nc(N3CCC(F)CC3)nc3c2CCNCC3)cc1Cl [Example 76, 4-(3-chloro-4-methylphenyl)-2-(4-fluoro-1-piperidinyl)-6,7,8,9-tetrahydro-5H-pyrimido[4,5-d]azepine]

Ki [1]: 2 nM
Ki [3]: 1 nM
Ki [4]: 14 nM
Structure (SMILES): Cc1ccc(-c2nc(N3CCCCC3)nc3c2CCNCC3)cc1 [Example 78, 6,7,8,9-tetrahydro-4-(4-methylphenyl)-2-(1-piperidinyl)-5H-pyrimido[4,5-d]azepine]

Ki [4]: 83 nM
Structure (SMILES): COc1ccc(-c2nc(N3CCC(F)CC3)nc3c2CCNCC3)cc1 [Example 81, 2-(4-fluoro-1-piperidinyl)-6,7,8,9-tetrahydro-4-(4-methoxyphenyl)-5H-pyrimido[4,5-d]azepine]

Ki [4]: 82 nM
Structure (SMILES): C[C@@H]1CCC[C@H](C)N1c1nc2c(c(-c3ccc4c(c3)OCCO4)n1)CCNCC2 [Example 87, 4-(2,3-dihydro-1,4-benzodioxin-6-yl)-2-[(2R,6S)-2,6-dimethyl-1-piperidinyl]-6,7,8,9-tetrahydro-5H-pyrimido[4,5-d]azepine]

Ki [4]: 88 nM
Structure (SMILES): C[C@@H]1CCC[C@H](C)N1c1nc2c(c(-c3ccc(OC(F)(F)F)cc3)n1)CCNCC2 [Example 90, 2-[(2R,6S)-2,6-dimethyl-1-piperidinyl]-6,7,8,9-tetrahydro-4-[4-(trifluoromethoxy)phenyl]-5H-pyrimido[4,5-d]azepine]

Ki [2]: 650 nM
Ki [3]: 3780 nM
Ki [4]: 92 nM
Structure (SMILES): CC(C)c1ccc(-c2nc(N3CCS(=O)(=O)CC3)nc3c2CCNCC3)cc1 [Example 101, 2-(1,1-Dioxo-1λ^6-thiomorpholin-4-yl)-4-(4-isopropyl-phenyl)-6,7,8,9-tetrahydro-5H-pyrimido[4,5-d]azepine]

Ki [2]: 300 nM
Ki [3]: 360 nM
Ki [4]: 70 nM
Structure (SMILES): c1ccc2ncc(-c3nc(N4CCOCC4)nc4c3CCNCC4)cc2c1 [Example 102, 2-Morpholin-4-yl-4-quinolin-3-yl-6,7,8,9-tetrahydro-5H-pyrimido[4,5-d]azepine]

Ki [4]: 42 nM
Structure (SMILES): FC1(F)CCN(c2nc3c(c(-c4cnc5ccccc5c4)n2)CCNCC3)CC1 [Example 103, 2-(4,4-difluoro-1-piperidinyl)-6,7,8,9-tetrahydro-4-(3-quinolinyl)-5H-pyrimido[4,5-d]azepine]
